Measured values reported in article PMC8715119, “Second-generation non-hematopoietic erythropoietin-derived peptide for neuroprotection” (Redox Biology, 2021).

Assays:
[1] = tested on: AKT; assay: Time-series immunoblot of phosphorylated AKT; assay type: cell-based, rat; conditions: PC12 cells; 1 nM; deficient level by 30 min, maintained at 90 min; n = 3
Description: (§1) PC12 or HT-22 cells were lysed in 100 mM Tris-Cl (pH 6.8) with 4% SDS. The lysates were loaded onto sodium dodecyl sulfate-polyacrylamide gel electrophoresis (SDS-PAGE) (8–10%), and the proteins were transferred onto the nitrocellulose membrane. The membrane was blocked with 0.1% TBST and 5% non-fat dry milk at 25°C for 30 min. Primary antibodies were diluted in 0.1% TBST and 3% bovine serum albumin (BSA). The primary antibodies included anti-pJAK2 (#3776, Cell Signaling Technology, USA), anti-JAK2 (#3230, Cell Signaling Technology, USA), anti-pSTAT5 (#9351, Cell Signaling Technology, USA), anti-STAT5 ([…], Cell Signaling Technology, USA), anti-pAKT (#9271, Cell Signaling Technology, USA), anti-AKT (#9272, Cell Signaling Technology, USA), anti-pERK (#9101, Cell Signaling Technology, USA) anti-ERK (#9102, Cell Signaling Technology, USA), anti-EPOR (#sc-365662, Santa Cruz Biotechnology, USA), anti-β-Actin (Santa Cruz Biotechnology, USA), anti-Bax (Santa Cruz Biotechnology, USA), anti-cleaved Casp3 (Cell Signaling Technology, USA), and anti-cleaved Parp1 (Cell Signaling Technology, USA).

[2] = tested on: HT-22 cells; assay: Cell viability after hypoxia and re-oxygenation; assay type: cell-based, mouse; conditions: hypoxia 18 h, re-oxygenation 3 h, treatment 19 h; reEPO 0.5 IU/ml, ML1-h3 1 ng/ml; n = 12
Description: HT-22 cells (kindly provided by Prof. Gil-Saeng Jeong in Keimyung University), an immortalized mouse hippocampal cell line, were cultured at 37°C and 5% CO2 in Dulbecco's modified eagle medium (DMEM, Invitrogen, USA) supplemented with 10% FBS and 1% penicillin/streptomycin at 37°C and 5% CO2.
Cell viability was evaluated by 3-[(4,5-dimethylthiazol-2-yl)-5,3-carboxymethoxyphenyl]-2-(4-sulfophenyl)-2H tetrazolium, inner salt (MTS) reduction assay (CellTiter 96 Aqueous One Solution Cell Proliferation Assay, Promega, Madison, WI, USA). Briefly, differentiated neuronal-PC12 cells were treated with H2O2 (300 μM) with or without reEPO and peptides for 24 h. The PC12 cells were washed with PBS; 20 ul MTS solution was added to each well with 100 μl PBS, and the cells were incubated for 3 h at 37°C and 5% CO2. The intracellular soluble formazan produced by cellular reduction of the MTS was determined by recording the absorbance at 490 nm using a microplate reader (VersaMax, Molecular Devices, USA). Cell proliferation was also evaluated by the MTS assay. Undifferentiated PC12 cells were seeded into a 96-well plate (5x10^4 cells/well). The next day, the initial cell number was counted; after 48 h, under low FBS concentration (0.5%), with or without reEPO and peptides, cell number was measured by the MTS assay.
The HT-22 cells were seeded onto 96-well or 6-well plates. […]

[3] = tested on: cleaved Caspase 3; assay: Immunoblot of cleaved Caspase 3 after hypoxia and re-oxygenation; assay type: cell-based, mouse; conditions: HT-22 cells; reEPO 0.5 IU/ml, ML1-h3 1 ng/ml; normalized by β-Actin; n = 6
Description: as §1
The HT-22 cells were seeded onto 96-well or 6-well plates. The next day, HT-22 cells were placed inside a sealed air-tight container consisting of an anaeropack (Mitsubishi Gas Company, Tokyo, Japan), which can induce a hypoxic atmosphere by absorbing oxygen and generating carbon dioxide. […]

Substance: reEPO: Recombinant human EPO (Epoetin-α, CJ HealthCare Corporation)
- Level of phosphorylated AKT (pAKT) over time [1]: gradually reduced phosphorylated AKT
- Cell viability under H/R [2]: suppressed the loss of cell viability
- Level of cleaved Caspase 3 under H/R [3]: efficiently reduced the levels of Bax, cleaved Caspase 3
